According to ChEMBL document CHEMBL1201862, “PubChem BioAssay data set” (2004):
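Five compound concentrations were applied to cells in 96-well plates for 48 hours; endpoints were derived by simple linear interpolation of the resulting dose-response curve. At the GI50, growth is halved.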 The source made the active and inactive calls. Cut-off read from the data, not from the text of the source: active = GI50 up to about 1.1 µM and inactive = higher.

How the values were obtained:
Test in all cases: NCI anticancer screen, dose series, 48 h
[1] = system: CCRF-CEM
[2] = system: HCT-15
[3] = system: SK-MEL-2
[4] = system: OVCAR-3
[5] = system: HL-60
[6] = system: SK-MEL-5
[7] = system: SN12C
[8] = system: PC-3
[9] = system: MDA-N
[10] = system: SK-MEL-28
[11] = system: SNB-19
[12] = system: SW-620
[13] = system: MCF7
[14] = system: DU-145
[15] = system: ACHN
[16] = system: NCI-H23
[17] = system: RXF 393
[18] = system: 786-0
[19] = system: HOP-62

| SMILES | GI50 [1] | GI50 [2] | GI50 [3] | GI50 [4] | GI50 [5] | GI50 [6] | GI50 [7] | GI50 [8] | GI50 [9] | GI50 [10] | GI50 [11] | GI50 [12] | GI50 [13] | GI50 [14] | GI50 [15] | GI50 [16] | GI50 [17] | GI50 [18] | GI50 [19] |
| --- | --- | --- | --- | --- | --- | --- | --- | --- | --- | --- | --- | --- | --- | --- | --- | --- | --- | --- | --- |
| C=C1C(C(O)C[C@H](C)C2O[C@@]3(CCCCO3)CCC2C)O[C@@H]2CCC3(CCC(/C=C/[C@@H](C)C4CC(C)=CC5(O4)O[C@H](C[C@](C)(O)C(=O)O)CCC5O)O3)OC2[C@@H]1O (some centres undefined) | 0.00826 µM (active) | < 0.0163 µM | 0.00253 µM (active) | 0.00239 µM (active) | 0.00408 µM (active) | 0.00308 µM (active) | 0.0127 µM (active) | 0.00545 µM (active) | 0.00117 µM (active) | 0.00227 µM (active) | 0.0027 µM (active) | 0.0134 µM (active) | 0.0065 µM (active) | 0.00908 µM (active) | 0.0191 µM (active) | 0.00819 µM (active) | 0.018 µM (active) | 0.00912 µM (active) |  |
| Cc1nc2c(=O)n(-c3ccccc3)c3ccccc3c2o1 | > 100 µM (inactive) | > 100 µM | > 100 µM (inactive) | > 100 µM (inactive) | > 100 µM (inactive) | > 100 µM (inactive) | > 100 µM (inactive) | > 100 µM (inactive) | > 100 µM (inactive) | > 100 µM (inactive) | > 100 µM (inactive) | > 100 µM (inactive) | > 100 µM (inactive) | > 100 µM (inactive) | > 100 µM (inactive) | > 100 µM (inactive) | > 100 µM (inactive) | > 100 µM (inactive) | > 100 µM (inactive) |
| O=C(/C=C1\N=C(c2ccccc2)N(c2nc3ccc(Sc4ccccc4)cc3[nH]2)C1=O)/C=C/c1ccccc1 | 31.6 µM (inactive) | 33.1 µM | 18.7 µM (inactive) | 29.6 µM (inactive) | 20.8 µM (inactive) | 21.5 µM (inactive) | 40 µM (inactive) | 30.5 µM (inactive) | 14.9 µM (inactive) | 46.5 µM (inactive) | 49 µM (inactive) | 33.9 µM (inactive) | 30.1 µM (inactive) | 28.1 µM (inactive) | 52.7 µM (inactive) | 31.6 µM (inactive) | 22.8 µM (inactive) | 33.3 µM (inactive) | 39.7 µM (inactive) |
| O=C1NC(SSC2=NNC3(C(=O)N2)c2ccccc2-c2ccccc23)=NNC12c1ccccc1-c1ccccc12 | > 10 µM (inactive) | > 10 µM | > 10 µM (inactive) | > 10 µM (inactive) | > 10 µM (inactive) | > 10 µM (inactive) | > 10 µM (inactive) | > 10 µM (inactive) | > 10 µM (inactive) | > 10 µM (inactive) | > 10 µM (inactive) | > 10 µM (inactive) | > 10 µM (inactive) | > 10 µM (inactive) | > 10 µM (inactive) | > 10 µM (inactive) | > 10 µM (inactive) | > 10 µM (inactive) | > 10 µM (inactive) |
| OC1CC2CCC(C1)N2CCCN1c2ccccc2Sc2ccc(Cl)cc21 (centres undefined) | 1.94 µM (inactive) | 2.49 µM | 1.69 µM (inactive) | 2.67 µM (inactive) | 2.26 µM (inactive) | 1.73 µM (inactive) | 3.73 µM (inactive) | 2.12 µM (inactive) | 1.87 µM (inactive) | 1.81 µM (inactive) | 3.88 µM (inactive) | 2.43 µM (inactive) | 1.59 µM (inactive) | 3.81 µM (inactive) | 2.23 µM (inactive) | 3.13 µM (inactive) | 1.74 µM (inactive) | 1.83 µM (inactive) | 4.73 µM (inactive) |
| O=[N+]([O-])c1ccc(C[S+]([O-])Cc2ccccc2)cc1 (centres undefined) | > 100 µM (inactive) | > 100 µM | > 100 µM (inactive) | > 100 µM (inactive) | > 100 µM (inactive) | > 100 µM (inactive) | > 100 µM (inactive) | > 100 µM (inactive) | > 100 µM (inactive) | > 100 µM (inactive) | > 100 µM (inactive) | > 100 µM (inactive) | > 100 µM (inactive) | > 100 µM (inactive) | > 100 µM (inactive) | > 100 µM (inactive) | > 100 µM (inactive) | > 100 µM (inactive) | > 100 µM (inactive) |
| COc1cc2c(c3c1c(=O)c1ccccc1n3C)C=C([N+](=O)[O-])C(C)(C)O2 | 0.468 µM (active) | 0.355 µM | 0.0991 µM (active) | > 100 µM (inactive) | 0.167 µM (active) | 0.0141 µM (active) |  | > 100 µM (inactive) | 0.114 µM (active) |  | 1.69 µM (inactive) |  | 0.358 µM (active) | < 0.0456 µM (active) | 0.0506 µM (active) | 0.395 µM (active) | 0.132 µM (active) | 0.328 µM (active) | 30.9 µM (inactive) |
